Test results from patent US20090124501A1, “Silicic Acid Componenet Supplying Agent For Algae And Method For Supplying Silicic Acid Component To Algae” (Incorporated Administrative Agency Fisheries Research Agency, priority 2006, published 2009).

Test system: Chaetoceros
Assay: Pigment and chlorophyll a content of Chaetoceros cultured for 20 days
Assay type: cell-based
Experimental: With respect to Chaetoceros cultured for 20 days after the silicic acid hydrogel and sodium metasilicate were added in an experimental plot and a control plot, respectively, under the same conditions as in Embodiment 3, difference in pigment and chlorophyll a content were examined. 20 mL of culture solution was collected from each of the experimental plot and the control plot, each cell density was measured, and only the cells were collected by suction filtration with a GF/F filter having a diameter of 47 mm (Whatman International Ltd.). Chlorophyll a was measured by a fluorescence method with a fluorometer (Turner Designs, Inc.) or by a measurement method with a spectrophotometer (Shimadzu Corporation).

SMILES: O=[Si]([O-])[O-].[Na+].[Na+] [sodium metasilicate]
- chlorophyll a content (Chaetoceros cultured for 20 days): 0.12-0.16 pg/cell
- color of Chaetoceros collected on the filters, visual observation (after culturing for 20 days, GF/F filter): light brown color
